Drawing on ChEMBL document CHEMBL1135086, this text covers inhibition for six molecules.

By inhibition is commonly meant the share of the control response that was lost under treatment.

In this assay the target is Nitric oxide synthase 1 (Rattus norvegicus) (UniProt P29476). Briefly: Effect on the activity of recombinant rat neuronal nitric oxide synthase as determined with radioactive L-arginine/L-citruline conversion assay. The arrangement: concentration or dose not given beside the values. The conditions noted are these: concentration not given here.
Chain of Nitric oxide synthase 1 (Rattus norvegicus) (P29476 whole entry): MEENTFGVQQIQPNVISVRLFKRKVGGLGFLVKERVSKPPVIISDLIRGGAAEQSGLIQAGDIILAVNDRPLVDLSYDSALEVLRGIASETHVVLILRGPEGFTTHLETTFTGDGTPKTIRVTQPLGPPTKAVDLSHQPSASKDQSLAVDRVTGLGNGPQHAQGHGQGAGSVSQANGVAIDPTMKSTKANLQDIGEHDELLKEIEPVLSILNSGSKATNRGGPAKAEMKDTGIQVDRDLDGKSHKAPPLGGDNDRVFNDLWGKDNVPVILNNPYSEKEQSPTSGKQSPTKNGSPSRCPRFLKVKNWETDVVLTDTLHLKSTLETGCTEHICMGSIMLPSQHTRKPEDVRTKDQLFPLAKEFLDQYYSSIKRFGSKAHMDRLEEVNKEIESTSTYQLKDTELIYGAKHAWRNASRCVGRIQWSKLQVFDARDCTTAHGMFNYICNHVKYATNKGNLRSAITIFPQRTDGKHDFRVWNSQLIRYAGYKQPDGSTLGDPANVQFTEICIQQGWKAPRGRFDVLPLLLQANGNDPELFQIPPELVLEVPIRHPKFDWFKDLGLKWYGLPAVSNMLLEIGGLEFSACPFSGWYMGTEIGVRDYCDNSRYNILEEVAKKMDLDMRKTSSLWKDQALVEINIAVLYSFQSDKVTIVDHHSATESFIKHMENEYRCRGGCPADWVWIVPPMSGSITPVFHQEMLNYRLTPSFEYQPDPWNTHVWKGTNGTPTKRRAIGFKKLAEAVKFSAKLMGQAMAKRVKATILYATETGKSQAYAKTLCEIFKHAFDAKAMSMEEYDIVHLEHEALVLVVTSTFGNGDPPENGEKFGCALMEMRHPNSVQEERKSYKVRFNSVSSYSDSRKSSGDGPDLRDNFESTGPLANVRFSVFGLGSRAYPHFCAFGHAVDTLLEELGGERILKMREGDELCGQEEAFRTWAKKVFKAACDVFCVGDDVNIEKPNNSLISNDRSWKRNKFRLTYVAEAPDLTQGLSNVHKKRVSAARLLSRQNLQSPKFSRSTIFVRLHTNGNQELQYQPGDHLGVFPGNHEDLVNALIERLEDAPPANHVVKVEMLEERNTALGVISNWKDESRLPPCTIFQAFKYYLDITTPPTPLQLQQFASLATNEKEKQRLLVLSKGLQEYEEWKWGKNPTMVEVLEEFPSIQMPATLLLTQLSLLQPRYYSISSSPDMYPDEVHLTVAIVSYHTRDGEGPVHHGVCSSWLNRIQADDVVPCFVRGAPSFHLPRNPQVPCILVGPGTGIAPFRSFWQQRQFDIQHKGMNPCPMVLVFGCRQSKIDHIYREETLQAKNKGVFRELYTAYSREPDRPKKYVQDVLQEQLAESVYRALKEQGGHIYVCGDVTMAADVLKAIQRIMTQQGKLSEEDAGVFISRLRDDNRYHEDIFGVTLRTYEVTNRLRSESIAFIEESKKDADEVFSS
In the case of `NCCc1cc(O)c(O)cc1[N+](=O)[O-]`, the inhibition was determined as 71%.

`O=[N+]([O-])c1ccc(O)c(O)c1`: the inhibition came to 33%.

In the case of `Cc1cc(O)c(O)cc1[N+](=O)[O-]`, the inhibition worked out at 35%.

For the molecule `Cc1cc([N+](=O)[O-])cc(O)c1O`, the inhibition worked out at 28%.

Turning to `O=[N+]([O-])c1cccc(O)c1O`, the inhibition is 94%.

For the molecule `NCC(O)c1cc(O)c(O)cc1[N+](=O)[O-]` (stereo unspecified), the inhibition was found to be 78%.
